Measured values: patent publication US8383636B2, “Acyclic amine inhibitors of 5-methytioadenosine phosphorylase and nucleosidase” (priority 2006, dated 2013)

What was measured:
N. meningitides MTAN = N. meningitides MTAN (Neisseria meningitidis, UniProt Q9K054); assay: Inhibition constants with N. meningitides MTAN (xanthine oxidase-coupled assay); assay type: biochemical, N. meningitides MC58; conditions: 25° C., pH 7.5, MTA as substrate
Procedure: (§1) E. coli MTAN and human MTAP were obtained according to the reported methods (Singh, et al, Biochemistry 44, 11647-11659 (2005); Singh and Schramm J. Am. Chem. Soc. 128, 14691-14696 (2006). The MTAN gene sequences from N. meningitides MC58 and H. pylori J99 were amplified from genomic DNA (ATCC) and cloned into a modified pET-32 vector to direct high-level expression of MTAN with a non-cleavable N-terminal 6His tag. 1.5 L cultures of BL21(DE3) harbouring MTAN constructs were induced with 0.5 mM IPTG for 20 hours at 25° C. with vigorous shaking. Cell pellets were washed and lysed in 40 mL lysis buffer (25 mM HEPES, 0.5M NaCl, 10 mM imidazole pH 7.6, protease inhibitors and 0.25 mM TCEP) with the use of a cell disrupter at 15K psi. After removal of cell debris by centrifugation, the soluble cell lysates were loaded onto nickel-charged chelating sepharose (GE Healthcare) and washed with lysis buffer containing 20-150 mM imidazole. The 6His-MTANs were eluted in 250 mM imidazole, desalted using a Sephadex G-15 (GE Healthcare) gel filtration column, equilibrated with low salt buffer (100 mM HEPES, 30 mM KCL, pH 7.6) and concentrated to 40 mg/mL.
(§2) Inhibitor concentrations were obtained from the absorbance at 274 nm with extinction coefficient of 8.5 mM^−1 cm^−1 for 9-deazaadenine moiety.
(§3) MTAN activities were assayed as reported previously (Singh et al (2006) Biochemistry 45, 12929-12941; Singh, et al (2005) J. Biol. Chem. 280, 18265-18273). Briefly, all experiments were carried out at 25° C., in 1 mL total reaction volume containing 100 mM HEPES buffer, pH 7.5 and 50 mM KCl with 5′-deoxymethylthioadenosine (MTA) as substrate. Kinetic constants (kcat and Km) were determined by monitoring MTA hydrolysis at 274 nm where ΔεMTA=1.6 mM^−1 cm^−1. For measuring dissociation constant (Kd) of inhibitors, a xanthine oxidase-coupled assay was carried out. In this assay, saturating levels (1-2 mM) of MTA and various concentrations of inhibitor were mixed with xanthine oxidase (0.5 unit/mL), which is used to convert the MTAN product adenine to 2,8-dihydroxyadenine (ε2,8-dihydroxadenine=15.2 mM^−1 cm^−1 at 293 nm). Reactions were initiated by the addition of 8-10 nM MTAN, and the absorbance at 293 was monitored. Control experiments were carried out in the absence of either inhibitor or MTAN.
(§4) [formula] where vs′ and vs are steady state rates in the presence, and absence of inhibitor, respectively; Km is substrate Michaelis constant which was obtained as described above; [S] and [I] are the concentrations of the substrate MTA and inhibitor, respectively. […] All data fitting was carried out with KaleidaGraph™ ver. 3.5 (Synergy Software).

E. coli MTAN = molecular target: T1, E. coli MTAN (Escherichia coli, UniProt P0AF12); assay: Inhibition constants with E. coli MTAN (xanthine oxidase-coupled assay); assay type: biochemical; conditions: 25° C., pH 7.5, MTA as substrate
T1 construct: made in house
Procedure: as §1, §2, §3, §4

human MTAP = molecular target: T2, human MTAP (Homo sapiens, UniProt Q13126); assay: Inhibition constants with MTAP (continuous spectrophotometric assay); assay type: biochemical
T2 construct: made in house
T2 sequence (Q13126 1-283): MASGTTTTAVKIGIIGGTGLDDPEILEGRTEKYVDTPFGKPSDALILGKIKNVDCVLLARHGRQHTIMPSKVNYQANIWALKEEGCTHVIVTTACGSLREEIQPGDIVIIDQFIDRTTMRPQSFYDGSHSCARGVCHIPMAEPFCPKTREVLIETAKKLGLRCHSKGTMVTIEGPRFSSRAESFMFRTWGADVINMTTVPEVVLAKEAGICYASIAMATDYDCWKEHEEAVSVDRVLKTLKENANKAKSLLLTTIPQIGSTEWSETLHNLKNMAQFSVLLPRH
Procedure: After removal of cell debris by centrifugation, the soluble cell lysates were loaded onto nickel-charged chelating sepharose (GE Healthcare) and washed with lysis buffer containing 20-150 mM imidazole. The 6His-MTANs were eluted in 250 mM imidazole, desalted using a Sephadex G-15 (GE Healthcare) gel filtration column, equilibrated with low salt buffer (100 mM HEPES, 30 mM KCL, pH 7.6) and concentrated to 40 mg/mL.
Continuous spectrophotometric assays were used to characterize the inhibitors of the invention and […] inhibition of MTAP.

T1 sequence (P0AF12 whole entry): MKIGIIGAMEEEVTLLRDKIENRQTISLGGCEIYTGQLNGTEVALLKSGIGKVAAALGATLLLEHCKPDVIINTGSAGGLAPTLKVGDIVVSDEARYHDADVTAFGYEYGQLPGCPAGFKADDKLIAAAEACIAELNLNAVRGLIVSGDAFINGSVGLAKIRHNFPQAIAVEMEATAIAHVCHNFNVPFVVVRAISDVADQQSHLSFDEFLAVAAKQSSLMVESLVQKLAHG
Chain of N. meningitides MTAN (Q9K054 entry or part of it): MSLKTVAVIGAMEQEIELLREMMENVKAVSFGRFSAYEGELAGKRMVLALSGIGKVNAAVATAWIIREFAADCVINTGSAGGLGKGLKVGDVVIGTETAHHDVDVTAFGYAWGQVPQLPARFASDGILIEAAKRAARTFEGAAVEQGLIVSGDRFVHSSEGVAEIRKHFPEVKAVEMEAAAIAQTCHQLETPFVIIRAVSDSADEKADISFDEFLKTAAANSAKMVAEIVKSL

**Q.** How did the Kd (N. meningitides MTAN) turn out when `CSC[C@@H](CNCc1c[nH]c2c(N)ncnc12)[C@@H](O)CO` (racemic) [Example 3, (2RS,3SR)-4-[(4-amino-5H-pyrrolo[3,2-d]pyrimidin-7-yl)methylamino]-3-(methylthiomethyl)butane-1,2-diol] was run?
**A.** 5 ± 1 nM

**Q.** What about the Kd (E. coli MTAN) of the same molecule?
**A.** 9 ± 2 nM

**Q.** Which results are given for `CSC[C@H](O)[C@@H](CO)CNCc1c[nH]c2c(N)ncnc12` (racemic) [Example 9, (2RS,3RS)-2-{[(4-amino-5H-pyrrolo[3,2-d]pyrimidin-7-yl)methylamino]methyl}-4-(methylthio)butane-1,3-diol]?
**A.** Kd (human MTAP): 278 ± 27 nM; Kd (N. meningitides MTAN): 12.8 ± 0.9 nM; Kd (E. coli MTAN): 25 ± 2 nM

**Q.** `CSC[C@H](O)[C@@H](CO)CN(C)Cc1c[nH]c2c(N)ncnc12` (racemic) [Example 10, (2RS,3RS)-2-((((4-amino-5H-pyrrolo[3,2-d]pyrimidin-7-yl)methyl)(methyl)amino)methyl)-4-(methylthio)butane-1,3-diol] was tested. Which Kd (N. meningitides MTAN) did it give?
**A.** 132 ± 9 nM

**Q.** What about the Kd (E. coli MTAN) of the same molecule?
**A.** 65 ± 6 nM

**Q.** What does the source list for `CSCC(CO)(CO)NCc1c[nH]c2c(N)ncnc12` [Example 1, 2-((4-amino-5H-pyrrolo[3,2-d]pyrimidin-7-yl)methylamino)-2-(methylthiomethyl)propane-1,3-diol]?
**A.** Kd (human MTAP): 34 ± 24 nM; Kd (N. meningitides MTAN): 4 ± 2 nM; Kd (E. coli MTAN): 5.8 ± 0.8 nM

**Q.** Which results are given for `CSC[C@@H](O)CNCc1c[nH]c2c(N)ncnc12` [Example 2, (S)-1-((4-amino-5H-pyrrolo[3,2-d]pyrimidin-7-yl)methylamino)-3-(methylthio)propan-2-ol]?
**A.** Kd (human MTAP): 60 ± 8 nM; Kd (N. meningitides MTAN): 3.6 ± 0.4 nM; Kd (E. coli MTAN): 4 ± 0.5 nM

**Q.** With `CSC[C@@H](CN(C)Cc1c[nH]c2c(N)ncnc12)[C@@H](O)CO` [Example 4, (2R,3S)-4-(((4-amino-5H-pyrrolo[3,2-d]pyrimidin-7-yl)methyl)(methyl)amino)-3-(methylthiomethyl)butane-1,2-diol] as the molecule, how does the Kd (E. coli MTAN) read?
**A.** 2300 ± 600 nM

**Q.** How did the Kd (human MTAP) turn out when `CSC[C@H](O)[C@H](CO)NCc1c[nH]c2c(N)ncnc12` [Example 7, (2S,3R)-2-((4-amino-5H-pyrrolo[3,2-d]pyrimidin-7-yl)methylamino)-4-(methylthio)butane-1,3-diol] was run?
**A.** 87 ± 11 nM

**Q.** Which results are given for `CSC[C@@H](O)[C@@H](CO)N(C)Cc1c[nH]c2c(N)ncnc12` [Example 8, (2R,3S)-2-(((4-amino-5H-pyrrolo[3,2-d]pyrimidin-7-yl)methyl)(methyl)amino)-4-(methylthio)butane-1,3-diol]?
**A.** Kd (human MTAP): 88 ± 21 nM; Kd (N. meningitides MTAN): 19.3 ± 0.3 nM; Kd (E. coli MTAN): 62 ± 5 nM

**Q.** With `CSC[C@H](O)[C@@H](O)CN(C)Cc1c[nH]c2c(N)ncnc12` [Example 11, (2S,3R)-1-(((4-amino-5H-pyrrolo[3,2-d]pyrimidin-7-yl)methyl)(methyl)amino)-4-(methylthio)butane-2,3-diol] as the molecule, how does the Kd (E. coli MTAN) read?
**A.** 202 ± 35 nM

**Q.** With `CSC[C@H](CO)N[C@H](CO)c1c[nH]c2c(N)ncnc12` [Example 12, (S)-2-((S)-1-(4-amino-5H-pyrrolo[3,2-d]pyrimidin-7-yl)-2-hydroxyethylamino)-3-(methylthio)propan-1-ol] as the molecule, how does the Kd (human MTAP) read?
**A.** 130 ± 20 nM

**Q.** What about the Kd (N. meningitides MTAN) of the same molecule?
**A.** 47 ± 4 nM

**Q.** And the Kd (E. coli MTAN)?
**A.** 154 ± 15 nM
